# Experimental data reported in BindingDB's records for doi:10.7270/Q2VT1QHF (Vanderbilt Screening Center For Gpcrs, Ion Channels and …, 2010).
# pEC50: −log10 of the molar value.
# Molecular target: Metabotropic glutamate receptor 4 (Homo sapiens, UniProt Q14833)
# Assay: PubChem AID 2197
# Chain of Metabotropic glutamate receptor 4 (Q14833 whole entry): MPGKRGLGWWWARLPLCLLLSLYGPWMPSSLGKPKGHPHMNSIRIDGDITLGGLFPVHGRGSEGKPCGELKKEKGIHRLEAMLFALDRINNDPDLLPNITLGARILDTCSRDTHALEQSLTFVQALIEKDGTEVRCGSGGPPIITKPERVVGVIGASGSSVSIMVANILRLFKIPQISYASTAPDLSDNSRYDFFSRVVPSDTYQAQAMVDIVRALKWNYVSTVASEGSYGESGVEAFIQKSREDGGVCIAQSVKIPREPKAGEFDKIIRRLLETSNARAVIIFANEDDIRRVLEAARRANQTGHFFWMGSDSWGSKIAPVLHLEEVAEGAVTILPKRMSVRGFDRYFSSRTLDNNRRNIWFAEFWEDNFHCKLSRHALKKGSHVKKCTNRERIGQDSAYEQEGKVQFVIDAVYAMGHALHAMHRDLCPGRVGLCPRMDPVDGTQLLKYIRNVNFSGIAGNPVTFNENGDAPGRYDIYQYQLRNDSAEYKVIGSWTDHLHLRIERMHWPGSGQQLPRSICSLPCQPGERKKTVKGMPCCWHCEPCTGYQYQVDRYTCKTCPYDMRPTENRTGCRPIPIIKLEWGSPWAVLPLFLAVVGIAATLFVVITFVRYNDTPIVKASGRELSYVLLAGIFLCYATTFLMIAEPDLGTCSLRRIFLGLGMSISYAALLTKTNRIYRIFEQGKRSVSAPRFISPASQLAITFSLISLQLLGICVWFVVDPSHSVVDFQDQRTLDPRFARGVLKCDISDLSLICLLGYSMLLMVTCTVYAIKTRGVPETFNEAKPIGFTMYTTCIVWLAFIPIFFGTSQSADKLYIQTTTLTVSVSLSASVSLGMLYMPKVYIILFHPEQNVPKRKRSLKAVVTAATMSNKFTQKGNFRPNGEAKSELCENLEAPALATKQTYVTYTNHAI
row,Compound,pEC50
1,"O=C(Nc1ccc(-n2c(O)ccc2O)c(Cl)c1)c1ccccn1 [N-[3-chloro-4-(2,5-dioxopyrrolidin-1-yl)phenyl]pyridine-2-carboxamide]",5.22
2,O=C(Nc1ccc(-n2c(O)c3c(c2O)[C@H]2CC[C@@H]3O2)c(Cl)c1)c1ccccn1 [VU0405235-1],5.84
